Laboratory results taken from the NIST ThermoML archive (doi:10.1021/je050173+).
± gives the expanded uncertainty stated by the source.

Tests used:
[1] = for mass density / viscosity / thermal conductivity: 101.33 kPa; for mass density / viscosity / thermal conductivity / vapor or sublimation pressure: Liquid; for surface tension liquid-gas: Maximal bubble pressure; for thermal conductivity: Hot wire method
[2] = molar heat capacity at constant pressure; settings: 101.33 kPa, Liquid

C[Si]1(C)O[Si](C)(C)O[Si](C)(C)O[Si](C)(C)O1 [octamethylcyclotetrasiloxane]
mass density ([1]; 292 K): 957.55 ± 0.74 kg/m3
surface tension liquid-gas ([1]; 293.15 K): 17.93 ± 0.16 mN/m
viscosity ([1]; 293.15 K): 2.45 ± 0.08 mPa·s
thermal conductivity ([1]; 298.15 K): 0.1131 ± 0.0005 W/m/K
mass density ([1]; 301.6 K): 946.16 ± 0.81 kg/m3
surface tension liquid-gas ([1]; 303.15 K): 17.28 ± 0.16 mN/m
mass density ([1]; 303.15 K): 944.21 ± 0.83 kg/m3
viscosity ([1]; 303.15 K): 2.06 ± 0.06 mPa·s
mass density ([1]; 311.2 K): 934.8 ± 0.88 kg/m3
vapor or sublimation pressure ([1]; 311.8 K): 0.355 ± 0.08 kPa
surface tension liquid-gas ([1]; 313.15 K): 16.6 ± 0.16 mN/m
mass density ([1]; 313.15 K): 932.43 ± 0.9 kg/m3
viscosity ([1]; 313.15 K): 1.7 ± 0.05 mPa·s
mass density ([1]; 316 K): 929.12 ± 0.92 kg/m3
vapor or sublimation pressure ([1]; 317.63 K): 0.535 ± 0.08 kPa
vapor or sublimation pressure ([1]; 318.25 K): 0.548 ± 0.08 kPa
surface tension liquid-gas ([1]; 323.15 K): 15.95 ± 0.15 mN/m
viscosity ([1]; 323.15 K): 1.44 ± 0.05 mPa·s
mass density ([1]; 325.62 K): 917.74 ± 0.99 kg/m3
vapor or sublimation pressure ([1]; 328.59 K): 0.988 ± 0.08 kPa
vapor or sublimation pressure ([1]; 328.78 K): 0.996 ± 0.08 kPa
mass density ([1]; 330.47 K): 912.06 ± 1 kg/m3
vapor or sublimation pressure ([1]; 332.94 K): 1.295 ± 0.081 kPa
surface tension liquid-gas ([1]; 333.15 K): 15.16 ± 0.15 mN/m
mass density ([1]; 333.15 K): 909.32 ± 1 kg/m3
viscosity ([1]; 333.15 K): 1.23 ± 0.04 mPa·s
vapor or sublimation pressure ([1]; 336.67 K): 1.642 ± 0.081 kPa
vapor or sublimation pressure ([1]; 339.58 K): 1.926 ± 0.081 kPa
mass density ([1]; 340.05 K): 900.68 ± 1.1 kg/m3
surface tension liquid-gas ([1]; 343.15 K): 14.5 ± 0.15 mN/m
viscosity ([1]; 343.15 K): 1.06 ± 0.03 mPa·s
thermal conductivity ([1]; 343.15 K): 0.1038 ± 0.0005 W/m/K
vapor or sublimation pressure ([1]; 343.99 K): 2.426 ± 0.081 kPa
mass density ([1]; 344.8 K): 894.99 ± 1.1 kg/m3
mass density ([1]; 349.65 K): 889.31 ± 1.2 kg/m3
vapor or sublimation pressure ([1]; 349.86 K): 3.277 ± 0.081 kPa
surface tension liquid-gas ([1]; 353.15 K): 13.77 ± 0.14 mN/m
mass density ([1]; 353.15 K): 884.79 ± 1.2 kg/m3
viscosity ([1]; 353.15 K): 0.92 ± 0.03 mPa·s
vapor or sublimation pressure ([1]; 360.26 K): 5.47 ± 0.082 kPa
surface tension liquid-gas ([1]; 363.15 K): 13.05 ± 0.14 mN/m
viscosity ([1]; 363.15 K): 0.81 ± 0.03 mPa·s
mass density ([1]; 364.04 K): 872.24 ± 1.3 kg/m3
surface tension liquid-gas ([1]; 373.15 K): 12.38 ± 0.14 mN/m
mass density ([1]; 373.15 K): 861.35 ± 1.4 kg/m3
viscosity ([1]; 373.15 K): 0.71 ± 0.02 mPa·s
vapor or sublimation pressure ([1]; 376.51 K): 10.96 ± 0.085 kPa
vapor or sublimation pressure ([1]; 379.31 K): 12.23 ± 0.085 kPa
vapor or sublimation pressure ([1]; 381.23 K): 13.17 ± 0.086 kPa
viscosity ([1]; 383.15 K): 0.63 ± 0.02 mPa·s
vapor or sublimation pressure ([1]; 383.17 K): 14.24 ± 0.086 kPa
mass density ([1]; 383.2 K): 849.47 ± 1.4 kg/m3
vapor or sublimation pressure ([1]; 383.58 K): 14.44 ± 0.086 kPa
vapor or sublimation pressure ([1]; 388.92 K): 17.67 ± 0.088 kPa
vapor or sublimation pressure ([1]; 389.73 K): 18.2 ± 0.088 kPa
vapor or sublimation pressure ([1]; 390.88 K): 18.9 ± 0.088 kPa
surface tension liquid-gas ([1]; 393.15 K): 10.98 ± 0.13 mN/m
mass density ([1]; 393.15 K): 837.64 ± 1.5 kg/m3
viscosity ([1]; 393.15 K): 0.56 ± 0.02 mPa·s
vapor or sublimation pressure ([1]; 396.28 K): 22.95 ± 0.091 kPa
mass density ([1]; 397.6 K): 832.37 ± 1.6 kg/m3
viscosity ([1]; 403.15 K): 0.51 ± 0.02 mPa·s
mass density ([1]; 407.22 K): 821 ± 1.6 kg/m3
vapor or sublimation pressure ([1]; 407.56 K): 33.46 ± 0.096 kPa
surface tension liquid-gas ([1]; 413.15 K): 9.58 ± 0.12 mN/m
mass density ([1]; 413.15 K): 813.94 ± 1.7 kg/m3
vapor or sublimation pressure ([1]; 413.82 K): 40.8 ± 0.1 kPa
mass density ([1]; 421.58 K): 803.91 ± 1.8 kg/m3
viscosity ([1]; 423.15 K): 0.41 ± 0.02 mPa·s
vapor or sublimation pressure ([1]; 423.24 K): 54.11 ± 0.11 kPa
surface tension liquid-gas ([1]; 433.15 K): 8.18 ± 0.12 mN/m
mass density ([1]; 433.15 K): 790.24 ± 1.9 kg/m3
vapor or sublimation pressure ([1]; 446.26 K): 100.82 ± 0.13 kPa
molar heat capacity at constant pressure ([2]; 293.15 K): 511.5 ± 4 J/K/mol
molar heat capacity at constant pressure ([2]; 298 K): 513.6 ± 4 J/K/mol
molar heat capacity at constant pressure ([2]; 303.15 K): 515.8 ± 4 J/K/mol
molar heat capacity at constant pressure ([2]; 306.25 K): 517.2 ± 4 J/K/mol
molar heat capacity at constant pressure ([2]; 313.12 K): 520.1 ± 4 J/K/mol
molar heat capacity at constant pressure ([2]; 319 K): 522.7 ± 4 J/K/mol
molar heat capacity at constant pressure ([2]; 323.25 K): 524.5 ± 4.1 J/K/mol
molar heat capacity at constant pressure ([2]; 327.55 K): 526.4 ± 4.1 J/K/mol
molar heat capacity at constant pressure ([2]; 334.75 K): 529.1 ± 4.1 J/K/mol
molar heat capacity at constant pressure ([2]; 337.88 K): 530.8 ± 4.1 J/K/mol
molar heat capacity at constant pressure ([2]; 342.23 K): 532.7 ± 4.1 J/K/mol
molar heat capacity at constant pressure ([2]; 348.05 K): 535.2 ± 4.1 J/K/mol
molar heat capacity at constant pressure ([2]; 352.2 K): 538.8 ± 4.2 J/K/mol
molar heat capacity at constant pressure ([2]; 358.83 K): 539.9 ± 4.2 J/K/mol
molar heat capacity at constant pressure ([2]; 364.28 K): 542.2 ± 4.2 J/K/mol
molar heat capacity at constant pressure ([2]; 370.25 K): 543 ± 4.2 J/K/mol
molar heat capacity at constant pressure ([2]; 377.55 K): 548 ± 4.2 J/K/mol
molar heat capacity at constant pressure ([2]; 382.48 K): 550.1 ± 4.3 J/K/mol
molar heat capacity at constant pressure ([2]; 388.65 K): 552.3 ± 4.3 J/K/mol
molar heat capacity at constant pressure ([2]; 393.15 K): 554.7 ± 4.3 J/K/mol
molar heat capacity at constant pressure ([2]; 399.83 K): 557.7 ± 4.3 J/K/mol
molar heat capacity at constant pressure ([2]; 407.15 K): 560.8 ± 4.3 J/K/mol
molar heat capacity at constant pressure ([2]; 415.73 K): 564.5 ± 4.4 J/K/mol
molar heat capacity at constant pressure ([2]; 425.95 K): 568.4 ± 4.4 J/K/mol
